According to PubChem BioAssay (NCI):
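A five-concentration, 48-hour dose response in 96-well plates underlies each endpoint, interpolated linearly between surrounding concentrations. TGI is the concentration that stops growth completely.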

Columns and labels:
Assay in all cases: growth of human tumour cells (NCI), 48 h
[1] = tested on: OVCAR-3 ovarian
[2] = tested on: LOX IMVI melanoma
[3] = tested on: BT-549 breast
[4] = tested on: KM12 colon
[5] = tested on: UACC-62 melanoma
[6] = tested on: MDA-MB-231 breast
[7] = tested on: M14 melanoma
[8] = tested on: MOLT-4 leukemia
[9] = tested on: SR leukemia
[10] = tested on: HOP-92 NSCLC
[11] = tested on: MALME-3M melanoma
[12] = tested on: OVCAR-8 ovarian
[13] = tested on: IGROV1 ovarian
[14] = tested on: MDA-N
[15] = tested on: ACHN renal
[16] = tested on: DU-145 prostate
[17] = tested on: SNB-75 CNS
[18] = tested on: HS 578T breast
[19] = tested on: NCI-H226 lung
[20] = tested on: SF-268 CNS
[21] = tested on: SNB-19 CNS
[22] = tested on: RPMI-8226 leukemia
[23] = tested on: HOP-62 NSCLC
[24] = tested on: 786-0 renal
[25] = tested on: HT29 colon
[26] = tested on: TK-10 renal
[27] = tested on: HCC-2998 colon
[28] = tested on: HCT-116 colon
[29] = tested on: SW-620 colon
[30] = tested on: SK-MEL-2 melanoma
[31] = tested on: NCI/ADR-RES ovarian
[32] = tested on: NCI-H460 lung
[33] = tested on: OVCAR-4 ovarian
[34] = tested on: U251 CNS
[35] = tested on: UACC-257 melanoma
[36] = tested on: CCRF-CEM leukemia
[37] = tested on: HCT-15 colon
[38] = tested on: OVCAR-5 ovarian
[39] = tested on: SF-295 CNS
[40] = tested on: SK-MEL-5 melanoma
[41] = tested on: CAKI-1 renal
[42] = tested on: SK-OV-3 ovarian
[43] = tested on: PC-3 prostate
[44] = tested on: SK-MEL-28 melanoma
[45] = tested on: A498 renal
[46] = tested on: A549 NSCLC
[47] = tested on: MCF7 breast
[48] = tested on: EKVX NSCLC
[49] = tested on: UO-31 renal
[50] = tested on: COLO 205 colon
[51] = tested on: MDA-MB-435
[52] = tested on: K-562 leukemia
[53] = tested on: SN12C renal
[54] = tested on: HL-60(TB) leukemia
[55] = tested on: RXF 393 renal
[56] = tested on: NCI-H23 lung
[57] = tested on: T-47D breast
[58] = tested on: NCI-H522 lung

Measured: TGI

COc1ccc(/C=N/NS(=O)(=O)c2ccc(/C=C3\NC(=O)N(C)C3=O)cc2)cc1
not listed: [58]
> 100 µM: all other assays above

C=CCN1C(=O)/C(=C/c2ccccc2)N=C1SC1OC(COC(C)=O)C(OC(C)=O)C(OC(C)=O)C1OC(C)=O (stereo unspecified)
58.9 µM: [34]
71.6 µM: [16]
53.4 µM: [20]
52.9 µM: [43]
67.8 µM: [17]
69.4 µM: [31]
36.6 µM: [55]
52.4 µM: [5]
72.2 µM: [18]
64.6 µM: [15]
83 µM: [28]
45.8 µM: [1]
71.3 µM: [53]
76.6 µM: [10] | [44]
60.6 µM: [54]
62.4 µM: [11]
99.7 µM: [45]
91.1 µM: [13]
53.8 µM: [41]
55.4 µM: [58]
65.5 µM: [3]
48.8 µM: [30]
87.6 µM: [56]
95.5 µM: [12]
63.7 µM: [48]
47.7 µM: [6]
not listed: [19] | [40] | [49] | [50]
> 100 µM: all other assays above
